Where two headings read alike, the source gives them in different places. Where no end group is shown, it is not given here.
Columns and labels:
[1] = system: advanced T1D in NOD mice
Text: Female non-obese diabetic (NOD) mice, which spontaneously develop autoimmune diabetes that mimics human T1D, are used to test the ability of the Hsp60 peptides and peptide analogs to induce regeneration of pancreatic beta cells. The NOD model is described, for example in Elias and Cohen (Lancet 1994, 343, 704-706). Female NOD mice raised under specific pathogen free (SPF) conditions develop insulitis around 4 weeks of age. […] In addition, the actual appearance of new beta cells, detected by increased C-peptide levels is measured in the revised protocol and not just preservation of initial C-peptide levels as in the original protocol.
Groups of 7 weeks old NOD/ShiLtJ mice (Jackson Number 001976, 10 mice per group) were used. Fasting blood glucose was monitored three times per week during all the treatment period, using methods known in the art. After about 12-20 weeks, when blood glucose reaches a level of […] the mice are treated with insulin in order to keep them alive and divided randomly between the following group treatments: • 1. no treatment; • 2. […]® only, once a week; • 3.
Fasting glucose was measured Hemoglobin A1C and C-peptide levels were measured at the end of treatment, up to six months, depending on the conditions of the control and treated animals.
Histology was performed to detect and count beta cells in pancreatic islets and to observe islet infiltrates. Histology was performed by staining for insulin and detection of appearance of beta cells, as described for example in Lumelsky et al, Science 2001, 292, 1389-1394.

[2] = system: NOD mice; conditions: subcutaneous administration; cited from earlier work

Row | Substance | Islets per whole section ([1]; 100 μg in INTRALIPID, SC, 1 injection/week) | Islets per whole section ([1]; 100 μg in PBS, IP, 3 injections/week) | Islets per whole section ([1]; 200 μg in INTRALIPID, SC, 1 injection/week) | Lymphocyte infiltrates compared to control mice treated with placebo ([1]; treated mice overall, Table 1) | Number of beta islets compared to control mice treated with placebo ([1]; treated mice overall, Table 1) | Development of diabetes in NOD mice [2] | T-cell reactivity to beta cell antigens [2]
1 | VLGGGVALLRVIPALDSLTPANED [DiaPep277] | 3 | 2 | 1 | less lymphocyte infiltrates | increased number of beta islets |  | 
2 | p277: specific peptide of human Hsp60, one of the immunodominant epitopes in autoimmune diabetes; native cysteines at positions 6 and 11 (VLGGGCALLRCIPALDSLTPANED; UniProt P10809 437-460, looked up, fragment) |  |  |  |  |  | prevented the development of diabetes | down-regulated

Source: patent publication US20150011471A1, “REGENERATION OF ISLET BETA CELLS BY HSP60 DERIVED PEPTIDES” (Yeda Research and Development Co. Ltd., priority 2012, published 2015)
